# According to patent US8138219B2, “Tryptamine sulfonamides as 5-HT6 antagonists” (Merck Sharp & Dohme Corp., priority 2007, dated 2012):
# Read-outs that look alike come from different tables or passages of the source.
# Key:
# Human 5-HT6 = molecular target: T1, Human 5-HT6 (Homo sapiens, UniProt P50406); test: 5-HT6 receptor binding assay ([3H]5-HT displacement, SPA), human receptor
# T1 construct: expressed in transfected cells
# Procedure: (§1) 5-HT6 Receptor Binding Assay
# (§2) Affinity (IC50) of a compound for cloned human, rat, or mouse 5-HT6 receptor was measured by its ability to displace [^3H]5-HT using cell membranes prepared from cultured cells and scintillation proximity assay (SPA) beads that bind to cell membranes (Catalog No. RPNQ0001; GE Healthcare Life Sciences, Piscataway, N.J.). Assays were carried out in 200 μl binding buffer (50 mM Tris-HCl, pH 7.4, 5 mM MgCl2, 0.5 mM EDTA, 10 μM pargyline and 0.1% ascorbic acid) in 96-well plates. Cell membranes were re-suspended in binding buffer to final concentration of up to 0.2 mg protein/ml and mixed with reconstituted SPA beads to a final concentration of 0.25 mg/ml. To each well, […] of above mixture, 50 of cold compound (to 10^−10 to 10^−5 M final concentration) and 50 μl of [^3H]5-HT radioligand (specific activity, 100 Ci/mmol, GE Healthcare Life Sciences; final concentration, 5 nM) were added. Following 1 h incubation at room temperature, the radioactivity bound to the cell membranes was measured on a scintillation counter.
# Mouse 5-HT6 = molecular target: T2, Mouse 5-HT6 (Mus musculus, UniProt Q9R1C8); test: 5-HT6 receptor binding assay ([3H]5-HT displacement, SPA), mouse receptor
# T2 construct: expressed in transfected cells
# Procedure: as §1, §2
# [1] = tested on: 5-HT6 receptor expressed in CHO cells; test: 5-HT6 receptor functional activity assay (cellular cAMP levels, CHO cells); assay type: cell-based, human, rat, or mouse; details: concentration up to 10 micromolar; cAMP accumulation; species not specified
# Procedure: 5-HT6 Receptor Functional Activity Assay.
# The functional activation of human, rat, or mouse 5-HT6 receptor expressed in CHO cells was determined by measuring cellular cAMP levels following the exposure of the cells to a compound using the SPA cAMP Screening System (Catalog No. RPA556, GE Healthcare) in 96-well OptiPlates (Catalog No. 6005190, PerkinElmer, Boston, Mass.). Cells expressing recombinant receptors were harvested and then re-suspended at approximately 2.0×10^6 cells/ml in assay medium containing Earle's Balanced Salt Solution (EBSS, pH 7.4) supplemented with 25 mM Hepes, 5 mM MgCl2 and 0.05% BSA. Cells (50 μl, ˜10^5 cells) were transferred to wells, to give a final volume of 100 μl containing various concentrations of compounds. The plate was incubated at 37° C. for 30 min and the reaction was terminated by boiling for 3 min. The accumulation of cAMP in 15 μl lysate was measured according to manufacture's instructions.
# [2] = cloned human 5-HT6 receptor, cell membranes, [3H]5-HT 5 nM, read-out: Human 5-HT6 binding IC50
# [3] = cloned mouse 5-HT6 receptor, cell membranes, [3H]5-HT 5 nM, read-out: Mouse 5-HT6 binding IC50
# T1 sequence (P50406 whole entry): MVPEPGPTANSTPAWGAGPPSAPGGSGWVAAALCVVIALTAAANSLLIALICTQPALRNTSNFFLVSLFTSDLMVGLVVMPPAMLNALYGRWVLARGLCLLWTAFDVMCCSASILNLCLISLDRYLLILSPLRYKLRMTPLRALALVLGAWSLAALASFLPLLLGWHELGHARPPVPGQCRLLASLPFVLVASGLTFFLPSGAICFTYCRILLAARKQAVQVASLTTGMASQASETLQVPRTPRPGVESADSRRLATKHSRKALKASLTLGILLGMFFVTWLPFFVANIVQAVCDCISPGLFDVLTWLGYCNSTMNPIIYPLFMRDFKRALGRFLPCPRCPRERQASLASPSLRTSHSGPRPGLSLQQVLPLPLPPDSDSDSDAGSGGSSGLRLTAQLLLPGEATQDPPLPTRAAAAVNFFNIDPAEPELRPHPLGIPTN
# T2 sequence (Q9R1C8 whole entry): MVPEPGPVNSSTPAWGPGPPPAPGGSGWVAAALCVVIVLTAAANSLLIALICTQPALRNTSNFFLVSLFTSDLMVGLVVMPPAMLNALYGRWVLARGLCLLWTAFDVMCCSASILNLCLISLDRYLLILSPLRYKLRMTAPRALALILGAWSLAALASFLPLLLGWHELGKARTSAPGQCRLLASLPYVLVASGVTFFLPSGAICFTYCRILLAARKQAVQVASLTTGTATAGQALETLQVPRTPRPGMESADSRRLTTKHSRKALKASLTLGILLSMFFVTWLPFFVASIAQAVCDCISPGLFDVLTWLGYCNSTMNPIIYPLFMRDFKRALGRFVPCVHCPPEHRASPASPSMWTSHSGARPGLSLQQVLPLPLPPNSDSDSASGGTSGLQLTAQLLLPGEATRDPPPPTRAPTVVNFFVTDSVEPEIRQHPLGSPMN
SMILES,IC50 (Human 5-HT6; [2]) [nM],IC50 (Mouse 5-HT6; [3]) [nM],functional activation of 5-HT6 receptor (detectable activity) [1],IC50 (Human 5-HT6) [nM],IC50 (Mouse 5-HT6) [nM]
Cl.O=S(=O)(c1ccccc1)n1cc(CCNCc2cccc(OCC(F)(F)C(F)F)c2)c2ccc(F)cc21 [Example 1],0.2,2,did not show detectable activity,–,–
O=S(=O)(c1ccc(OC(F)(F)F)cc1)n1cc(CCNCc2cccc(OCC(F)(F)C(F)F)c2)c2ccc(F)cc21 [Example 2],–,–,–,46.4,211
COc1cccc(S(=O)(=O)n2cc(CCNCc3cccc(OCC(F)(F)C(F)F)c3)c3ccc(F)cc32)c1 [Example 3],0.593,170,–,–,–
O=S(=O)(c1cccc(Cl)c1)n1cc(CCNCc2cccc(OCC(F)(F)C(F)F)c2)c2ccc(F)cc21 [Example 4],0.805,60.2,–,–,–
O=S(=O)(c1ccc(F)cc1)n1cc(CCNCc2cccc(OCC(F)(F)C(F)F)c2)c2ccc(F)cc21 [Example 6],–,–,–,2.88,21.6
O=S(=O)(c1ccc(Br)cc1)n1cc(CCNCc2cccc(OCC(F)(F)C(F)F)c2)c2ccc(F)cc21 [Example 8],2.05,15.4,–,–,–
CS(=O)(=O)n1cc(CCNCc2cccc(OCC(F)(F)C(F)F)c2)c2ccc(F)cc21 [Example 12],–,–,–,1.61,9.51
CCS(=O)(=O)n1cc(CCNCc2cccc(OCC(F)(F)C(F)F)c2)c2ccc(F)cc21 [Example 13],–,–,–,2.62,11.7
CC(C)S(=O)(=O)n1cc(CCNCc2cccc(OCC(F)(F)C(F)F)c2)c2ccc(F)cc21 [Example 14],20,57.1,–,–,–
COc1ccc(S(=O)(=O)n2cc(CCNCc3cccc(OCC(F)(F)C(F)F)c3)c3ccc(F)cc32)cc1 [Example 15],10.2,187,–,–,–

# The next lines start with results.
IC50 (Human 5-HT6; [2]) [nM],IC50 (Mouse 5-HT6; [3]) [nM],SMILES,functional activation of 5-HT6 receptor (detectable activity) [1],IC50 (Human 5-HT6) [nM],IC50 (Mouse 5-HT6) [nM]
2.88,148,O=S(=O)(c1cc(Cl)cc(Cl)c1)n1cc(CCNCc2cccc(OCC(F)(F)C(F)F)c2)c2ccc(F)cc21 [Example 5],–,–,–
3.4,7.27,O=S(=O)(c1ccc(Cl)cc1)n1cc(CCNCc2cccc(OCC(F)(F)C(F)F)c2)c2ccc(F)cc21 [Example 7],–,–,–
8.85,127,O=S(=O)(c1ccc(F)c(Cl)c1)n1cc(CCNCc2cccc(OCC(F)(F)C(F)F)c2)c2ccc(F)cc21 [Example 9],–,–,–
0.626,60,O=S(=O)(c1cccc(C(F)(F)F)c1)n1cc(CCNCc2cccc(OCC(F)(F)C(F)F)c2)c2ccc(F)cc21 [Example 10],–,–,–
0.371,17.6,O=S(=O)(c1cccc(F)c1)n1cc(CCNCc2cccc(OCC(F)(F)C(F)F)c2)c2ccc(F)cc21 [Example 11],–,–,–
